What was measured:
[1] = molecular target: GABA A receptor alpha-2/beta-2/gamma-2 (Homo sapiens) (UniProt P47870+P18507+P47869); test: Inhibition of recombinant human GABA A alpha2beta2gamma2 receptor expressed in CHO-K1 cells at 300 uM incubated at room temperature for 15 mins before the GABA addition fluorescence spectrometry; assay type: cell-based
Mus musculus = test: Toxicity in CD1 mouse assessed as induction of convulsion at 100 mg/kg, icv measured 1 hr after post dose; assay type: organism-based; conditions: in vivo, icv_or_intrathecal
Escherichia coli [2] = test: Antimicrobial activity against Escherichia coli expressing beta-lactamase NDM-5 by CLSI broth microdilution method; assay type: functional
Escherichia coli [3] = test: Antimicrobial activity against Escherichia coli expressing beta-lactamase VEB-1 by CLSI broth microdilution method; assay type: functional
Escherichia coli [4] = test: microbe, parasite or virus in culture
Description: Antimicrobial activity against Escherichia coli expressing beta-lactamase Oxa-23 by CLSI broth microdilution method

Escherichia coli [5] = test: microbe, parasite or virus in culture; remark: listed apart in the source
Description: Antimicrobial activity against Escherichia coli expressing beta-lactamase GIM-1 by CLSI broth microdilution method

Escherichia coli [6] = test: microbe, parasite or virus in culture; remark: listed apart in the source
Description: Antimicrobial activity against Escherichia coli expressing beta-lactamase KPC-4 by CLSI broth microdilution method

Escherichia coli [7] = test: microbe, parasite or virus in culture; remark: listed apart in the source
Description: Antimicrobial activity against Escherichia coli expressing beta-lactamase IMP-1 by CLSI broth microdilution method

Escherichia coli [8] = test: microbe, parasite or virus in culture; remark: listed apart in the source
Description: Antimicrobial activity against Escherichia coli expressing beta-lactamase KPC-3 by CLSI broth microdilution method

Escherichia coli [9] = test: microbe, parasite or virus in culture; remark: listed apart in the source
Description: Antimicrobial activity against Escherichia coli expressing beta-lactamase IMI-1 by CLSI broth microdilution method

Escherichia coli [10] = test: microbe, parasite or virus in culture; remark: listed apart in the source
Description: Antimicrobial activity against Escherichia coli expressing beta-lactamase Oxa-181 by CLSI broth microdilution method

Escherichia coli [11] = test: microbe, parasite or virus in culture; remark: listed apart in the source
Description: Antimicrobial activity against Escherichia coli expressing beta-lactamase VIM-1 by CLSI broth microdilution method

Escherichia coli [12] = test: microbe, parasite or virus in culture; remark: listed apart in the source
Description: Antimicrobial activity against Escherichia coli expressing beta-lactamase CMY-2 by CLSI broth microdilution method

Escherichia coli [13] = test: microbe, parasite or virus in culture; remark: listed apart in the source
Description: Antimicrobial activity against Escherichia coli expressing beta-lactamase SHV-12 by CLSI broth microdilution method

Escherichia coli [14] = test: microbe, parasite or virus in culture; remark: listed apart in the source
Description: Antimicrobial activity against Escherichia coli expressing beta-lactamase PER-4 by CLSI broth microdilution method

Escherichia coli [15] = test: microbe, parasite or virus in culture; remark: listed apart in the source
Description: Antimicrobial activity against Escherichia coli expressing beta-lactamase MIR-1 by CLSI broth microdilution method

Escherichia coli [16] = test: microbe, parasite or virus in culture; remark: listed apart in the source
Description: Antimicrobial activity against Escherichia coli expressing beta-lactamase TEM-24 by CLSI broth microdilution method

Escherichia coli [17] = test: microbe, parasite or virus in culture; remark: listed apart in the source
Description: Antimicrobial activity against Escherichia coli expressing beta-lactamase Oxa-146 by CLSI broth microdilution method

Escherichia coli [18] = test: microbe, parasite or virus in culture; remark: listed apart in the source
Description: Antimicrobial activity against Escherichia coli expressing beta-lactamase TEM-10 by CLSI broth microdilution method

Escherichia coli [19] = test: microbe, parasite or virus in culture; remark: listed apart in the source
Description: Antimicrobial activity against Escherichia coli expressing beta-lactamase TEM-16 by CLSI broth microdilution method

Escherichia coli [20] = test: microbe, parasite or virus in culture; remark: listed apart in the source
Description: Antimicrobial activity against Escherichia coli expressing beta-lactamase PER-1 by CLSI broth microdilution method

Escherichia coli [21] = test: microbe, parasite or virus in culture; remark: listed apart in the source
Description: Antimicrobial activity against Escherichia coli expressing beta-lactamase NMC-A by CLSI broth microdilution method

Escherichia coli [22] = test: microbe, parasite or virus in culture; remark: listed apart in the source
Description: Antimicrobial activity against Escherichia coli expressing beta-lactamase P99 by CLSI broth microdilution method

Escherichia coli [23] = test: microbe, parasite or virus in culture; remark: listed apart in the source
Description: Antimicrobial activity against Escherichia coli expressing beta-lactamase Oxa-40 by CLSI broth microdilution method

Escherichia coli [24] = test: microbe, parasite or virus in culture; remark: listed apart in the source
Description: Antimicrobial activity against Escherichia coli expressing beta-lactamase PER-2 by CLSI broth microdilution method

Escherichia coli [25] = test: microbe, parasite or virus in culture; remark: listed apart in the source
Description: Antimicrobial activity against Escherichia coli expressing beta-lactamase VEB-7 by CLSI broth microdilution method

Escherichia coli [26] = test: microbe, parasite or virus in culture; remark: listed apart in the source
Description: Antimicrobial activity against Escherichia coli expressing beta-lactamase AmpC by CLSI broth microdilution method

Escherichia coli [27] = test: Antimicrobial activity against Escherichia coli expressing beta-lactamase NDM-1 by CLSI broth microdilution method; assay type: functional
Escherichia coli [28] = test: microbe, parasite or virus in culture; remark: listed apart in the source
Description: Antimicrobial activity against Escherichia coli expressing beta-lactamase Oxa-51 by CLSI broth microdilution method

Escherichia coli [29] = test: Antimicrobial activity against Escherichia coli expressing beta-lactamase KPC-2 by CLSI broth microdilution method; assay type: functional
Escherichia coli [30] = test: microbe, parasite or virus in culture; remark: listed apart in the source
Description: Antimicrobial activity against Escherichia coli expressing beta-lactamase KPC-8 by CLSI broth microdilution method

Escherichia coli [31] = test: microbe, parasite or virus in culture; remark: listed apart in the source
Description: Antimicrobial activity against Escherichia coli expressing beta-lactamase GES-1 by CLSI broth microdilution method

Escherichia coli [32] = test: microbe, parasite or virus in culture; remark: listed apart in the source
Description: Antimicrobial activity against Escherichia coli expressing beta-lactamase Oxa-18 by CLSI broth microdilution method

Escherichia coli [33] = test: microbe, parasite or virus in culture; remark: listed apart in the source
Description: Antimicrobial activity against Escherichia coli expressing beta-lactamase SPM-1 by CLSI broth microdilution method

Escherichia coli [34] = test: microbe, parasite or virus in culture; remark: listed apart in the source
Description: Antimicrobial activity against Escherichia coli expressing beta-lactamase Oxa-48 by CLSI broth microdilution method

Escherichia coli [35] = test: microbe, parasite or virus in culture; remark: listed apart in the source
Description: Antimicrobial activity against Escherichia coli expressing beta-lactamase VEB-4 by CLSI broth microdilution method

Escherichia coli [36] = test: microbe, parasite or virus in culture; remark: listed apart in the source
Description: Antimicrobial activity against Escherichia coli expressing beta-lactamase Oxa-225 by CLSI broth microdilution method

Escherichia coli [37] = test: microbe, parasite or virus in culture; remark: listed apart in the source
Description: Antimicrobial activity against Escherichia coli expressing beta-lactamase TEM-121 by CLSI broth microdilution method

Escherichia coli [38] = test: microbe, parasite or virus in culture; remark: listed apart in the source
Description: Antimicrobial activity against Escherichia coli expressing beta-lactamase Oxa-10 by CLSI broth microdilution method

Escherichia coli [39] = test: microbe, parasite or virus in culture; remark: listed apart in the source
Description: Antimicrobial activity against Escherichia coli expressing beta-lactamase Oxa-160 by CLSI broth microdilution method

Escherichia coli [40] = test: microbe, parasite or virus in culture; remark: listed apart in the source
Description: Antimicrobial activity against Escherichia coli expressing beta-lactamase CTXM-3 by CLSI broth microdilution method

Pseudomonas aeruginosa [41] = test: Antimicrobial activity against Pseudomonas aeruginosa expressing delta-mexB/mexXY/delta-ampDh2/ delta-ampD by CLSI broth microdilution method; assay type: functional
Pseudomonas aeruginosa [42] = test: Antimicrobial activity against Pseudomonas aeruginosa expressing nalB/delta-mexXY/delta-mexCDoprJ/delta-ampC by CLSI broth microdilution method; assay type: functional
Pseudomonas aeruginosa [43] = test: Antimicrobial activity against Pseudomonas aeruginosa expressing delta-mexB/delta-mexXY/delta-mexCD and delta-ampC mutant by CLSI broth microdilution method; assay type: functional
[44] = Chemical stability in pH 7.4 potassium phosphate buffer assessed as half life for compound hydrolysis at 37 degC by UPLC and mass spectrometry; assay type: physicochemical
Pseudomonas aeruginosa [45] = test: Antimicrobial activity against Pseudomonas aeruginosa ATCC 27853 by CLSI broth microdilution method; assay type: functional
Escherichia coli [46] = test: microbe, parasite or virus in culture; remark: listed apart in the source
Description: Antimicrobial activity against wild type Escherichia coli by CLSI broth microdilution method

Escherichia coli [47] = test: microbe, parasite or virus in culture; remark: listed apart in the source
Description: Antimicrobial activity against Escherichia coli expressing beta-lactamase CTXM-15 by CLSI broth microdilution method

Enterobacteriaceae = test: Antimicrobial activity against ESBL, KPC and MBL producing Enterobacteriaceae by CLSI broth microdilution method; assay type: functional
Escherichia coli [48] = test: microbe, parasite or virus in culture; remark: listed apart in the source
Description: Antimicrobial activity against Escherichia coli expressing beta-lactamase SME-1 by CLSI broth microdilution method

Escherichia coli [49] = test: Antimicrobial activity against Escherichia coli expressing beta-lactamase TEM-1 by CLSI broth microdilution method; assay type: functional
Escherichia coli [50] = test: microbe, parasite or virus in culture; remark: listed apart in the source
Description: Antimicrobial activity against Escherichia coli expressing beta-lactamase TEM-47 by CLSI broth microdilution method

Escherichia coli [51] = test: microbe, parasite or virus in culture; remark: listed apart in the source
Description: Antimicrobial activity against Escherichia coli expressing beta-lactamase DHA by CLSI broth microdilution method

C[C@@H](O)[C@H]1C(=O)N2C(C(=O)O)=C(S[C@@H]3CN[C@H](CNS(N)(=O)=O)C3)[C@H](C)[C@H]12 [DORIPENEM]
0%: inhibition [1]
Non-Toxic: Activity (Mus musculus)

C[C@@H](O)[C@H]1C(=O)N2C(C(=O)O)=C(SCCNC=N)C[C@H]12 [IMIPENEM ANHYDROUS]
0.5 µg/mL: MIC (Escherichia coli [15])
16 µg/mL: MIC (Escherichia coli [2]) | MIC (Escherichia coli [27])
1 µg/mL: MIC (Escherichia coli [4]) | MIC (Escherichia coli [5]) | MIC (Escherichia coli [6]) | MIC (Escherichia coli [10]) | MIC (Escherichia coli [23]) | MIC (Escherichia coli [33]) | MIC (Escherichia coli [34]) | MIC (Escherichia coli [36]) | MIC (Escherichia coli [39])
2 µg/mL: MIC (Escherichia coli [7]) | MIC (Escherichia coli [8]) | MIC (Escherichia coli [9]) | MIC (Escherichia coli [11]) | MIC (Escherichia coli [21]) | MIC (Escherichia coli [30])
0.25 µg/mL: MIC (Escherichia coli [12]) | MIC (Escherichia coli [13]) | MIC (Escherichia coli [14]) | MIC (Escherichia coli [16]) | MIC (Escherichia coli [17]) | MIC (Escherichia coli [18]) | MIC (Escherichia coli [19]) | MIC (Escherichia coli [20]) | MIC (Escherichia coli [22]) | MIC (Escherichia coli [24]) | MIC (Escherichia coli [25]) | MIC (Escherichia coli [26]) | MIC (Escherichia coli [28]) | MIC (Escherichia coli [31]) | MIC (Escherichia coli [32]) | MIC (Escherichia coli [35]) | MIC (Escherichia coli [37]) | MIC (Escherichia coli [38]) | MIC (Escherichia coli [40])
0.125 µg/mL: MIC (Escherichia coli [3])
2 to 16 µg/mL: MIC (Escherichia coli [29])
15%: inhibition [1]

Nc1nc(/C(=N/OC2(C(=O)O)CC2)C(=O)N[C@@H]2C(=O)N(S(=O)(=O)O)[C@H]2CN2CCOC2=O)cs1 (stereo in doubt)
2 µg/mL: MIC (Escherichia coli [12]) | MIC (Pseudomonas aeruginosa [43])
64 µg/mL: MIC (Escherichia coli [13])
0.5 µg/mL: MIC (Escherichia coli [26]) | MIC (Escherichia coli [29]) | MIC (Escherichia coli [47])
0.25 µg/mL: MIC (Escherichia coli [27]) | MIC (Escherichia coli [46])
> 64 µg/mL: MIC (Pseudomonas aeruginosa [41]) | MIC (Pseudomonas aeruginosa [42]) | MIC (Pseudomonas aeruginosa [45])
32 µg/mL: MIC (Escherichia coli [18])
450 h: half-life [44]

C[C@@H](O)[C@H]1C(=O)N2C(C(=O)O)=C(S[C@@H]3CN[C@H](C(=O)N(C)C)C3)[C@H](C)[C@H]12 [MEROPENEM]
8 µg/mL: MIC (Escherichia coli [7]) | MIC (Escherichia coli [33])
0.5 µg/mL: MIC (Escherichia coli [10])
16 to 64 µg/mL: MIC (Escherichia coli [27])
0.125 µg/mL: MIC (Escherichia coli [4]) | MIC (Escherichia coli [17]) | MIC (Escherichia coli [36])
≤ 0.015 µg/mL: MIC (Escherichia coli [13]) | MIC (Escherichia coli [26]) | MIC (Escherichia coli [28]) | MIC (Escherichia coli [46]) | MIC (Escherichia coli [47])
≤ 0.06 µg/mL: MIC (Escherichia coli [3]) | MIC (Escherichia coli [12]) | MIC (Escherichia coli [14]) | MIC (Escherichia coli [15]) | MIC (Escherichia coli [16]) | MIC (Escherichia coli [19]) | MIC (Escherichia coli [20]) | MIC (Escherichia coli [49]) | MIC (Escherichia coli [22]) | MIC (Escherichia coli [24]) | MIC (Escherichia coli [50]) | MIC (Escherichia coli [25]) | MIC (Escherichia coli [31]) | MIC (Escherichia coli [32]) | MIC (Escherichia coli [51]) | MIC (Escherichia coli [35]) | MIC (Escherichia coli [37]) | MIC (Escherichia coli [38]) | MIC (Escherichia coli [40])
64 µg/mL: MIC (Escherichia coli [2])
2 µg/mL: MIC (Escherichia coli [8]) | MIC (Escherichia coli [21]) | MIC (Escherichia coli [29]) | MIC (Escherichia coli [30])
4 µg/mL: MIC (Escherichia coli [11]) | MIC (Escherichia coli [48])
32 µg/mL: MIC90 (Enterobacteriaceae)
1 µg/mL: MIC (Escherichia coli [5]) | MIC (Escherichia coli [6]) | MIC (Escherichia coli [9]) | MIC (Escherichia coli [23]) | MIC (Escherichia coli [34])
78 h: half-life [44]
0.25 µg/mL: MIC (Escherichia coli [39])

CC(C)(O/N=C(\C(=O)N[C@@H]1C(=O)N(S(=O)(=O)O)[C@@H]1Cn1cncn1)c1csc(N)n1)C(=O)O (stereo in doubt)
0.5 µg/mL: MIC (Escherichia coli [27]) | MIC (Escherichia coli [46]) | MIC (Escherichia coli [47])
> 64 µg/mL: MIC (Pseudomonas aeruginosa [41]) | MIC (Pseudomonas aeruginosa [42])
8 µg/mL: MIC (Escherichia coli [12])
32 µg/mL: MIC (Pseudomonas aeruginosa [45])
16 µg/mL: MIC (Escherichia coli [26])
1 µg/mL: MIC (Escherichia coli [13]) | MIC (Escherichia coli [18]) | MIC (Pseudomonas aeruginosa [43]) | MIC (Escherichia coli [29])
233 h: half-life [44]

N=C(NC1CCNCC1)c1ccc(OC[C@H](O/N=C(\C(=O)N[C@@H]2C(=O)N(S(=O)(=O)O)[C@@H]2Cn2cncn2)c2csc(N)n2)C(=O)O)cc1 (stereo in doubt)
64 µg/mL: MIC (Escherichia coli [3]) | MIC (Escherichia coli [25]) | MIC (Escherichia coli [35])
35%: inhibition [1]
32 µg/mL: MIC (Escherichia coli [32])
1 µg/mL: MIC (Escherichia coli [6]) | MIC (Escherichia coli [17]) | MIC (Escherichia coli [18]) | MIC (Pseudomonas aeruginosa [43]) | MIC (Escherichia coli [51]) | MIC (Escherichia coli [37])
16 µg/mL: MIC (Pseudomonas aeruginosa [41])
0.5 µg/mL: MIC (Escherichia coli [2]) | MIC (Escherichia coli [12]) | MIC (Escherichia coli [13]) | MIC (Escherichia coli [16]) | MIC (Escherichia coli [22]) | MIC (Escherichia coli [30])
> 64 µg/mL: MIC (Escherichia coli [14]) | MIC (Escherichia coli [20]) | MIC (Escherichia coli [24])
8 µg/mL: MIC (Pseudomonas aeruginosa [42])
0.25 µg/mL: MIC (Escherichia coli [8]) | MIC (Escherichia coli [10]) | MIC (Escherichia coli [15]) | MIC (Escherichia coli [19]) | MIC (Escherichia coli [49]) | MIC (Escherichia coli [23]) | MIC (Escherichia coli [26]) | MIC (Escherichia coli [31]) | MIC (Escherichia coli [36]) | MIC (Escherichia coli [39])
0.125 µg/mL: MIC (Escherichia coli [4]) | MIC (Escherichia coli [5]) | MIC (Escherichia coli [7]) | MIC (Escherichia coli [9]) | MIC (Escherichia coli [11]) | MIC (Escherichia coli [48]) | MIC (Escherichia coli [21]) | MIC (Escherichia coli [50]) | MIC (Escherichia coli [27]) | MIC (Escherichia coli [28]) | MIC (Escherichia coli [29]) | MIC (Escherichia coli [46]) | MIC (Escherichia coli [33]) | MIC (Escherichia coli [34]) | MIC (Escherichia coli [38]) | MIC (Escherichia coli [47]) | MIC (Escherichia coli [40])
2 µg/mL: MIC (Pseudomonas aeruginosa [45])

Source: ChEMBL document CHEMBL4184210, “Optimization of novel monobactams with activity against carbapenem-resistant Enterobacteriaceae - Identification of LYS228” (Bioorg Med Chem Lett, 2018)
